Data taken from US4792632A, “Bisacylphosphine oxides, the preparation and use thereof” (ESPE Fabrik Pharmazeutischer Praparate GmbH, priority 1984, dated 1988).

Assays:
[1] = UV/visible extinction at 400 nm; assay type: physicochemical; details: for εmol at 400 nm: Table 1; for Extinction at 400 nm: Table 2
[2] = Attained thickness of cured layer of resin solution (curing depth) after storage, dental radiator 20 s; details: for Layer Thickness after 1 month / Layer Thickness after 24 hrs: 0.5% by weight photoinitiator in solution I, 20 s exposure; for Layer Thickness after 1 month: stored 1 month in absence of light; for Layer Thickness after 24 hrs: stored 1 day in absence of light; for Thickness Loss: 24 hrs versus 1 month storage
Protocol: 70 parts by weight of bis-acryloxymethyl-tricyclo-[5.2.1.0.^2,6 ]-decane and
30 parts by weight of 2,2-bis-4-(3-methacryloxy-2-hydroxypropoxy)-phenylpropane (Bis-GMA)
are stirred while carefully heated until a clear solution I is formed.
The solution I is cooled to room temperature and 0.5% by weight of a photoinitiator (selected from those listed in Table 2) are added with stirring until the solution is clear.
The resulting solution is introduced into a cylinder (5 mm diameter, 8 mm length; for greater thicknesses 20 mm). Thereafter the solution is exposed to radiation from a commercial dental radiator (Elipar-Visio/Espe) for 20 seconds, the polymer is removed from the cylinder, the soft or gel-like, incompletely polymerized components are removed with a plastic spatula, and the attained thickness of the layer is measured. To this end the solutions are stored prior to polymerization for 1 day and 1 month, respectively, in the absence of light.

[3] = Uncured soft layer at surface of tooth filling composite; details: 20 s exposure; for Soft Layer (amount of uncured material), upper surface: first of two values, upper surface of cylinder; for Soft Layer (amount of uncured material), lower surface: second of two values, lower surface of cylinder
From the text: (§1) Tooth filling composites prepared according to Example 3 with the use of the photoinitiators listed in Table 3 are filled into cylinders (3 mm diameter, 3 mm height) in the middle of which the temperature can be measured during the polymerization. After 20 seconds of exposure to light from a commercial dental radiator (Elipar-Visio lamp/Espe) the structures are taken out and the soft layer is removed with toluene. From the weight difference the amount of uncured material in mg/cm^2 at the upper and lower surface of the cylinder is calculated. Moreover, the temperature course in time is followed by the thermosensor and a measuring instrument connected thereto.

[4] = Temperature course during polymerization of tooth filling composite; details: 3 mm height, 20 s exposure; for Time for reaching Tmax: cylinder 3 mm diameter; for Tmax: middle of cylinder 3 mm diameter
From the text: as §1

For Cc1ccc2ccccc2c1C(=O)P(=O)(C(=O)c1c(C)ccc2ccccc12)c1ccc(-c2ccccc2)cc1 [bis-(2-methyl-1-naphthoyl)-4-biphenylylphosphine oxide], the “εmol at 400 nm” value [1] was 1680.
In the case of CCOc1ccc(P(=O)(C(=O)c2c(Cl)cccc2Cl)C(=O)c2c(Cl)cccc2Cl)cc1 [bis-(2,6-dichlorobenzoyl)-4-ethoxyphenylphosphine oxide], the “εmol at 400 nm” value [1] is reported as 690.
With CCCCCCCCCCP(=O)(C(=O)c1c(Cl)cccc1Cl)C(=O)c1c(Cl)cccc1Cl [bis-(2,6-dichlorobenzoyl)decylphosphine oxide] the “εmol at 400 nm” value [1] was 470.
With O=C(c1c(Cl)cccc1Cl)P(=O)(c1ccccc1)c1ccccc1 [2,6-Dichlorobenzoyl-diphenylphosphine oxide, reference compound] the “Layer Thickness after 1 month” value [2] was 6.5 mm, the “Layer Thickness after 24 hrs” value [2] was 7 mm and the “Thickness Loss” value [2] was 7%. For the same molecule, the “Extinction at 400 nm” value [1] was 190.
With Cc1ccc2ccccc2c1C(=O)P(=O)(C(=O)c1c(C)ccc2ccccc12)c1ccccc1 [bis-(2-methyl-1-naphthoyl)phenylphosphine oxide] the “εmol at 400 nm” value [1] was 1040.
With Cc1ccc(C)c(P(=O)(C(=O)c2c(Cl)cccc2Cl)C(=O)c2c(Cl)cccc2Cl)c1 [Bis-(2,6-dichlorobenzoyl)-2,5-dimethylphenylphosphine Oxide] the “Layer Thickness after 1 month” value [2] was 14.5 mm, the “Layer Thickness after 24 hrs” value [2] was 15 mm and the “Thickness Loss” value [2] was 3%. The “Soft Layer (amount of uncured material), upper surface” value [3] was 1.0 mg/cm^2, the “Soft Layer (amount of uncured material), lower surface” value [3] was 1.1 mg/cm^2 and the “εmol at 400 nm” value [1] was 580. The “Extinction at 400 nm” value [1] was 580, the “Time for reaching Tmax” value [4] was 16 s and the Tmax [4] was 43.7 °C.
With Cc1ccc(C)c(P(=O)(C(=O)c2c(Cl)cccc2Cl)c2cc(C)ccc2C)c1 [2,6-Dichlorobenzoyl-bis-(2,5-dimethylphenyl)phosphine oxide, reference compound] the “Layer Thickness after 1 month” value [2] was 4.1 mm, the “Layer Thickness after 24 hrs” value [2] was 5.1 mm and the “Thickness Loss” value [2] was 20%. For the same molecule, the “Extinction at 400 nm” value [1] was 440.
In the case of COc1cccc(OC)c1C(=O)P(=O)(C(=O)c1c(OC)cccc1OC)c1ccccc1 [bis-(2,6-dimethoxybenzoyl)phenylphosphine oxide], the “εmol at 400 nm” value [1] is reported as 550.
In the case of Cc1cc(C)c(C(=O)P(=O)(c2ccccc2)c2ccccc2)c(C)c1 [2,4,6-Trimethylbenzoyldiphenylphosphine oxide, reference compound], the “Soft Layer (amount of uncured material), upper surface” value [3] is reported as 1.8 mg/cm^2, the “Soft Layer (amount of uncured material), lower surface” value [3] is reported as 2.0 mg/cm^2 and the “Time for reaching Tmax” value [4] is reported as 18 s. It also gave a Tmax [4] of 39.8 °C.
For COc1c(Cl)c(C(=O)P(=O)(C(=O)c2c(Cl)c(OC)c(OC)c(OC)c2Cl)c2cc(C)ccc2C)c(Cl)c(OC)c1OC [bis-(2,6-dichloro-3,4,5-trimethoxybenzoyl)-2,5-dimethylphenylphosphine oxide], the “εmol at 400 nm” value [1] was 640.
With COc1ccc2ccccc2c1C(=O)P(=O)(C(=O)c1c(OC)ccc2ccccc12)c1cc(C)ccc1C [Bis-(2-methoxy-1-naphthoyl-2,5-dimethylphenylphosphineoxide] the “εmol at 400 nm” value [1] was 2550.
In the case of O=C(c1c(Cl)cccc1Cl)P(=O)(C(=O)c1c(Cl)cccc1Cl)c1ccccc1 [bis-(2,6-dichlorobenzoyl)phenylphosphine oxide], the “Layer Thickness after 1 month” value [2] is reported as 14.5 mm, the “Layer Thickness after 24 hrs” value [2] is reported as 15 mm and the “Thickness Loss” value [2] is reported as 3%. For the same molecule, the “εmol at 400 nm” value [1] was 607 and the “Extinction at 400 nm” value [1] was 607.
With O=C(c1c(Cl)cccc1Cl)P(=O)(C(=O)c1c(Cl)cccc1Cl)c1ccc(-c2ccccc2)cc1 [bis-(2,6-dichlorobenzoyl)-4-biphenylylphosphine oxide] the “εmol at 400 nm” value [1] was 800.
In the case of COc1cccc(OC)c1C(=O)P(=O)(C(=O)c1c(OC)cccc1OC)c1cc(C)ccc1C [bis-(2,6-dimethoxybenzoyl)-2,5-dimethylphenylphosphine oxide], the “εmol at 400 nm” value [1] is reported as 505.
For CCCCCCCCc1ccc(P(=O)(C(=O)c2c(Cl)cccc2Cl)C(=O)c2c(Cl)cccc2Cl)cc1 [bis-(2,6-dichlorobenzoyl)-4-octylphenylphosphine oxide], the “εmol at 400 nm” value [1] was 620.
In the case of CCOc1ccc(P(=O)(C(=O)c2c(OC)ccc3ccccc23)C(=O)c2c(OC)ccc3ccccc23)cc1 [bis-(2-methoxy-1-naphthoyl)-4-ethoxyphenylphosphine oxide], the “εmol at 400 nm” value [1] is reported as 2700.
